Test results published in patent publication US20080306044A1, “SPIROBENZOAZEPANES AS VASOPRESSIN ANTAGONISTS” (priority 2007, published 2008).
Read-outs that look alike come from different tables or passages of the source.

Legend:
human V1a receptor = molecular target: T1, human V1a receptor (Homo sapiens, UniProt P37288); test: cell-based
T1 construct: expressed in transfected cells
Method: The V1a receptor is a G-protein coupled receptor, which upon activation triggers an increase in intracellular calcium mobilization. To evaluate compounds for their functional V1a receptor activity, HEK-293 cells were transfected with the human V1a receptor (V1a-HEK cells). HEK-293 cells were grown in DMEM (Dulbecco's modified Eagle Media) supplemented with 10% FBS and glutamine. HEK-cells were passed biweekly by trypsinization and seeded into 96 well plates at 33,000 cells per well. HEK-293 cells were transfected with human V1a receptor DNA using DMRIE-C reagent from Life Technologies (Carlsbad, Calif.). Stable lines were generated by selecting cells grown in culture media containing geneticin. After growing in Packard Clear-View black 96 well plates for 4-6 days, V1a-HEK cells were loaded with the calcium-sensitive fluorescence dye, FLUO-3 AM. Changes in intracellular calcium mobilization were measured by quantitating intracellular fluorescence using FLIPR (Fluorometric Imaging Plate Reader; Molecular Devices, Sunnyvale, Calif.). Test compounds were first added to the cells and the resulting changes in fluorescence measured to detect receptor agonistic activity. Five minutes later the cells were challenged with vasopressin to test compounds for their antagonistic activity. Receptor antagonists inhibit the ability of vasopressin to stimulate increases in intracellular fluorescence.

human V2 receptor = human V2 receptor (Homo sapiens, UniProt P30518); test: V2 vasopressin receptor functional activity (cAMP accumulation); assay type: cell-based; design: expressed in transfected cells; host or cells: HEK-293
Method: The V2 receptor is also a G-protein coupled receptor which when activated induces an increase in cAMP turnover. Antagonism against the V2 receptor is determined by measuring cAMP accumulation in transfected HEK-293 cells expressing the human V-2 receptor (V2-HEK cells). Compounds are tested for their ability to block the stimulatory effects of vasopressin on cAMP accumulation. The cell content of cAMP is measured by radioimmunoassay using NEN flashplates.

[1] = V2-HEK cells, block of vasopressin-stimulated cAMP accumulation, read-out: V2 (functional) IC50
[2] = V1a-HEK cells, inhibition of vasopressin-stimulated intracellular calcium mobilization, read-out: V1 (functional) IC50
[3] = V1 (functional) IC50, V1a-HEK cells, inhibition of vasopressin-stimulated intracellular calcium mobilization

T1 sequence (P37288 whole entry): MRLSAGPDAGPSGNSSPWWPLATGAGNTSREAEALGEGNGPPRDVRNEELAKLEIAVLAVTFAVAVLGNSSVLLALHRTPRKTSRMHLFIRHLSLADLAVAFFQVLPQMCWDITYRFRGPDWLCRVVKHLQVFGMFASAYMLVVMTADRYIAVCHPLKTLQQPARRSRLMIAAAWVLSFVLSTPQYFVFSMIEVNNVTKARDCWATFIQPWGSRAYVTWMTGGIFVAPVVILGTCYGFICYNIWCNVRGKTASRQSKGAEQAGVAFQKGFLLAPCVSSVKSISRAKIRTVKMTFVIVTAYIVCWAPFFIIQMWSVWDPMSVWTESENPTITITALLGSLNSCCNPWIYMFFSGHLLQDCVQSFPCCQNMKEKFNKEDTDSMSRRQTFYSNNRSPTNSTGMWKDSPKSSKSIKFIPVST
Sequence of human V2 receptor (P30518 whole entry): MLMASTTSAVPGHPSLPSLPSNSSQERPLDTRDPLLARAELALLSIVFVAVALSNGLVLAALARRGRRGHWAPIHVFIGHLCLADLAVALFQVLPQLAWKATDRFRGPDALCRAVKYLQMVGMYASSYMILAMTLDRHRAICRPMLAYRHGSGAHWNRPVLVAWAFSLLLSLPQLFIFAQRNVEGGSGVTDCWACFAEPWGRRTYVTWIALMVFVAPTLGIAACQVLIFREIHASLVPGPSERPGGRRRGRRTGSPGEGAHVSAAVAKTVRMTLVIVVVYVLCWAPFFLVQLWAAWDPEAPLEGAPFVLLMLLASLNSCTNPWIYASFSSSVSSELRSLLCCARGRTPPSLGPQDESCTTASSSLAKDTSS

SMILES | IC50 (human V1a receptor) | IC50 (human V2 receptor; [1]) | IC50 (human V1a receptor; [2]) | IC50 (human V1a receptor; [3]) | IC50 (human V2 receptor)
COc1cc(C(=O)N2CC[C@@]3(CCC(=NOCC(=O)O)C3)Cc3ccccc32)ccc1NC(=O)c1cc(F)ccc1Cl [Cpd 24, (R)—N-[3-methoxy-4-(2-chloro-5-fluoro-phenylcarbonyl)amino-phenylcarbonyl]-3-carboxymethoxyimino-spiro[cyclopentane-1,4′-benzo[b]azepane]] | 100 nM | 220 nM |  |  | 
COc1cc(C(=O)N2CC[C@]3(C=C(C4=NCCN4)CC3)Cc3ccccc32)ccc1NC(=O)c1cc(F)ccc1Cl [Cpd 12, (R)-N-[3-methoxy-4-(2-chloro-5-fluoro-phenylcarbonyl)amino-phenylcarbonyl]-3-(4,5-dihydro-1H-imidazol-2-yl)-spiro[cyclopent-2-ene-1,4′-benzo[b]azepane]] |  | 1100 nM | 320 nM |  | 
COc1cc(C(=O)N2CC[C@@]3(CCC(=NO)C3)Cc3ccccc32)ccc1NC(=O)c1cc(F)ccc1Cl [Cpd 15, (R)-N-[3-methoxy-4-(2-chloro-5-fluoro-phenylcarbonyl)amino-phenylcarbonyl]-3-hydroxyimino-spiro[cyclopentane-1,4′-benzo[b]azepane]] |  |  |  | 90 nM | 400 nM
COc1cc(C(=O)N2CC[C@]3(C=C(c4nnn[nH]4)CC3)Cc3ccccc32)ccc1NC(=O)c1cc(F)ccc1Cl [Cpd 11, (R)-N-[3-methoxy-4-(2-chloro-5-fluoro-phenylcarbonyl)amino-phenylcarbonyl]-3-tetrazol-5-yl-spiro[cyclopent-2-ene-1,4′-benzo[b]azepane]] |  | 40 nM | 63 nM |  | 
COc1cc(C(=O)N2CCC3(CCCC3NS(N)(=O)=O)Cc3ccccc32)ccc1NC(=O)c1cc(F)ccc1Cl (stereo not drawn) [Cpd 33, 2-aminosulfonylamino-N-[3-methoxy-4-(2-chloro-5-fluoro-phenylcarbonyl)amino-phenylcarbonyl]-spiro[cyclopentane-1,4′-benzo[b]azepane]] | 330 nM | 31 nM |  |  | 
COc1cc(C(=O)N2CC[C@@]3(CCC(N4CCCC4)C3)Cc3ccccc32)ccc1NC(=O)c1cc(F)ccc1Cl (stereo partly drawn) [Cpd 25, (1R)-N-[3-methoxy-4-(2-chloro-5-fluoro-phenylcarbonyl)amino-phenylcarbonyl]-3-(1H-pyrrolidin-1-yl)-spiro[cyclopentane-1,4′-benzo[b]azepane]] | 810 nM | 1000 nM |  |  | 
COc1cc(C(=O)N2CC[C@@]3(CCC(N)C3)Cc3ccccc32)ccc1NC(=O)c1cc(F)ccc1Cl (stereo partly drawn) [Cpd 17, (1R)-3-amino-N-[3-methoxy-4-(2-chloro-5-fluoro-phenylcarbonyl)amino-phenylcarbonyl]-spiro[cyclopentane-1,4′-benzo[b]azepane]] | 730 nM | 1100 nM |  |  | 
COc1cc(C(=O)N2CC[C@@]3(CCC(=CC(=O)NCCO)C3)Cc3ccccc32)ccc1NC(=O)c1cc(F)ccc1Cl [Cpd 29, (R)—N-[3-methoxy-4-(2-chloro-5-fluoro-phenylcarbonyl)amino-phenylcarbonyl]-3-(2-hydroxy-ethyl)aminocarbonylmethylene-spiro[cyclopentane-1,4′-benzo[b]azepane]] |  | 90 nM |  | 170 nM | 
COc1cc(C(=O)N2CC[C@]3(C=C(c4ncc[nH]4)CC3)Cc3ccccc32)ccc1NC(=O)c1cc(F)ccc1Cl [Cpd 14, (R)-N-[3-methoxy-4-(2-chloro-5-fluoro-phenylcarbonyl)amino-phenylcarbonyl]-3-(1H-imidazol-2-yl)-spiro[cyclopent-2-ene-1,4′-benzo[b]azepane]] |  | 730 nM | 95 nM |  | 
COc1cc(C(=O)N2CC[C@]3(C=C(C(=O)NS(=O)(=O)N(C)C)CC3)Cc3ccccc32)ccc1NC(=O)c1cc(F)ccc1Cl [Cpd 36, (R)-N-[3-methoxy-4-(2-chloro-5-fluoro-phenylcarbonyl)amino-phenylcarbonyl]-3-[(dimethylaminosulfonyl)aminocarbonyl]-spiro[cyclopent-2-ene-1,4′-benzo[b]azepane]] | 210 nM | 170 nM |  |  | 
COc1cc(C(=O)N2CC[C@@]3(CCC(=CC(=O)NCCN(C)C)C3)Cc3ccccc32)ccc1NC(=O)c1cc(F)ccc1Cl [Cpd 31, (R)-N-[3-methoxy-4-(2-chloro-5-fluoro-phenylcarbonyl)amino-phenylcarbonyl]-3-(2-dimethylamino-ethyl)aminocarbonylmethylene-spiro[cyclopentane-1,4′-benzo[b]azepane]] | 150 nM | 140 nM |  |  | 
CON=C1CC[C@@]2(CCN(C(=O)c3ccc(NC(=O)c4cc(F)ccc4Cl)c(OC)c3)c3ccccc3C2)C1 [Cpd 22, (R)—N-[3-methoxy-4-(2-chloro-5-fluoro-phenylcarbonyl)amino-phenylcarbonyl]-3-methoxyimino-spiro[cyclopentane-1,4′-benzo[b]azepane]] |  | 740 nM |  | 290 nM | 
COc1cc(C(=O)N2CC[C@@]3(CCC(N(C)C)C3)Cc3ccccc32)ccc1NC(=O)c1cc(F)ccc1Cl (stereo partly drawn) [Cpd 20, (1R)—N-[3-methoxy-4-(2-chloro-5-fluoro-phenylcarbonyl)amino-phenylcarbonyl]-3-dimethylamino-spiro[cyclopentane-1,4′-benzo[b]azepane]] |  |  | 490 nM |  | 
COc1cc(C(=O)N2CC[C@@]3(CC[C@H](NS(N)(=O)=O)C3)Cc3ccccc32)ccc1NC(=O)c1cc(F)ccc1Cl [Cpd 34, (1R,3S)-3-aminosulfonylamino-N-[3-methoxy-4-(2-chloro-5-fluoro-phenylcarbonyl)amino-phenylcarbonyl]-spiro[cyclopentane-1,4′-benzo[b]azepane]] |  | 250 nM |  | 250 nM | 
COc1cc(C(=O)N2CC[C@@]3(CCC(NS(N)(=O)=O)C3)Cc3ccccc32)ccc1NC(=O)c1cc(F)ccc1Cl (stereo partly drawn) [Cpd 19, (1R)-3-aminosulfonylamino-N-[3-methoxy-4-(2-chloro-5-fluoro-phenylcarbonyl)amino-phenylcarbonyl]-spiro[cyclopentane-1,4′-benzo[b]azepane]] |  | 120 nM |  | 100 nM | 
COc1cc(C(=O)N2CC[C@]3(C=C(C(=O)NS(N)(=O)=O)CC3)Cc3ccccc32)ccc1NC(=O)c1cc(F)ccc1Cl [Cpd 13, (R)-3-aminosulfonylaminocarbonyl-N-[3-methoxy-4-(2-chloro-5-fluoro-phenylcarbonyl)amino-phenylcarbonyl]-spiro[cyclopent-2-ene-1,4′-benzo[b]azepane]] |  | 11 nM | 27 nM |  | 
COc1cc(C(=O)N2CC[C@@]3(CCC(=CC(N)=O)C3)Cc3ccccc32)ccc1NC(=O)c1cc(F)ccc1Cl [Cpd 32, (R)-3-aminocarbonylmethylene-N-[3-methoxy-4-(2-chloro-5-fluoro-phenylcarbonyl)amino-phenylcarbonyl]-spiro[cyclopentane-1,4′-benzo[b]azepane]] |  | 34 nM |  | 170 nM | 
COc1cc(C(=O)N2CC[C@@]3(CC[C@@H](NS(N)(=O)=O)C3)Cc3ccccc32)ccc1NC(=O)c1cc(F)ccc1Cl [Cpd 35, (1R,3R)-3-aminosulfonylamino-N-[3-methoxy-4-(2-chloro-5-fluoro-phenylcarbonyl)amino-phenylcarbonyl]-spiro[cyclopentane-1,4′-benzo[b]azepane]] |  | 44 nM |  | 78 nM | 
NS(=O)(=O)NC(=O)C1=C[C@@]2(CC1)CCN(C(=O)c1ccc(NC(=O)c3cc(F)ccc3Cl)cc1)c1ccccc1C2 [Cpd 52, (R)-3-aminosulfonylaminocarbonyl-N-[4-(2-chloro-5-fluoro-phenylcarbonyl)amino-phenylcarbonyl]-spiro[cyclopent-2-ene-1,4′-benzo[b]azepane]] | 77 nM | 35 nM |  |  | 
COc1cc(C(=O)N2CC[C@@]3(CCC(=NN(C)C)C3)Cc3ccccc32)ccc1NC(=O)c1cc(F)ccc1Cl [Cpd 27, (R)—N-[3-methoxy-4-(2-chloro-5-fluoro-phenylcarbonyl)amino-phenylcarbonyl]-3-dimethylaminoimino-spiro[cyclopentane-1,4′-benzo[b]azepane]] |  | 390 nM |  | 130 nM | 
COc1cc(C(=O)N2CC[C@@]3(CCC(NCCN(C)C)C3)Cc3ccccc32)ccc1NC(=O)c1cc(F)ccc1Cl (stereo partly drawn) [Cpd 21, (1R)—N-[3-methoxy-4-(2-chloro-5-fluoro-phenylcarbonyl)amino-phenylcarbonyl]-3-(2-dimethylamino-ethyl)amino-spiro[cyclopentane-1,4′-benzo[b]azepane]] | 170 nM | 1100 nM |  |  | 
COc1cc(C(=O)N2CC[C@@]3(CCC(N4CCN(C)CC4)C3)Cc3ccccc32)ccc1NC(=O)c1cc(F)ccc1Cl (stereo partly drawn) [Cpd 23, (1R)—N-[3-methoxy-4-(2-chloro-5-fluoro-phenylcarbonyl)amino-phenylcarbonyl]-3-(4-methyl-piperazin-1-yl)-spiro[cyclopentane-1,4′-benzo[b]azepane]] |  |  | 710 nM |  | 
